Measurements: paper PMC10763615, “Identification and engineering of potent cyclic peptides with selective or promiscuous binding through biochemical profiling and bioinformatic data analysis” (RSC Chemical Biology, 2023)
pKd: −log10 of the molar value. Read-outs that look alike come from different tables or passages of the source. Positions of bridges follow the written chain, without caps; N, C: chain ends. Residues, ends and D or L forms follow the SMILES beside them. No end group written: not given here.

How the values were obtained:
[1] = target: T1, FGF-R4 ECD (Homo sapiens, UniProt P22455); test: single concentration BLI of crude peptides; format: binding
T1 construct: DNA constructs for the extracellular domain (ECD) of human FGF-; HPC4 (C); made in house; host or cells: HEK 293-6E
T1 sequence (P22455 22-369 limits assumed): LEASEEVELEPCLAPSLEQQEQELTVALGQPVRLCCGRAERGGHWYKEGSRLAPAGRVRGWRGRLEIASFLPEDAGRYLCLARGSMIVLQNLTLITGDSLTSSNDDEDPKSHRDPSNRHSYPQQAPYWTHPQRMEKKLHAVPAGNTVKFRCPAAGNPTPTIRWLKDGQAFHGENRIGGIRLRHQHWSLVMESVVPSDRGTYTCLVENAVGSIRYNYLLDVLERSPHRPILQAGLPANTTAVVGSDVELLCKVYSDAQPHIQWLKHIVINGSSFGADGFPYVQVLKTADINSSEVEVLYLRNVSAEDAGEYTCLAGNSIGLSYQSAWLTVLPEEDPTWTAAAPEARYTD
In short: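 Streptavidin biosensors carrying biotinylated FGF receptor ECD were immersed in peptide (~1 μM for crude single-point runs, a concentration series for purified peptides) and then in peptide-free buffer. KD was obtained by fitting the BLI association and dissociation curves.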

[2] = target: T2, FGF-R1C ECD (Homo sapiens, UniProt P11362); test: biochemical; format: binding; design: DNA constructs for the extracellular domain (ECD) of human FGF-; HPC4 (C); made in house; host or cells: HEK 293-6E
T2 sequence (P11362 22-376 limits assumed): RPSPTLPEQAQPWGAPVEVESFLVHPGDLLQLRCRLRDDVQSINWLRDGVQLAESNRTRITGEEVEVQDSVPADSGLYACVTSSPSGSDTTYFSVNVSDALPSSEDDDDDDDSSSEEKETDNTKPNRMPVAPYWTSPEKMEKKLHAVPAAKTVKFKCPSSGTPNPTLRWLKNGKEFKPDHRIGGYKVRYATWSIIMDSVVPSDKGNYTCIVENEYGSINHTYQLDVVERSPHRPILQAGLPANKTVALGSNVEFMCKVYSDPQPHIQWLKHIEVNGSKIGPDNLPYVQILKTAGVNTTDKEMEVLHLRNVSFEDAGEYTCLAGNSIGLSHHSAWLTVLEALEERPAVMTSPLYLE
In short: (§1)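 BLI, streptavidin sensors loaded with biotinylated receptor ECD. Single-point: ~1 μM crude peptide, PBS pH7.4/0.05% Tween-20/0.01% BSA; association then dissociation in buffer. KD corrected for UPLC-CAD-determined concentration.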

[3] = target: T3, FGF-R3C ECD (Homo sapiens, UniProt P22607); test: biochemical; format: binding; design: DNA constructs for the extracellular domain (ECD) of human FGF-; HPC4 (C); made in house; host or cells: HEK 293-6E
T3 sequence (P22607 23-375 limits assumed): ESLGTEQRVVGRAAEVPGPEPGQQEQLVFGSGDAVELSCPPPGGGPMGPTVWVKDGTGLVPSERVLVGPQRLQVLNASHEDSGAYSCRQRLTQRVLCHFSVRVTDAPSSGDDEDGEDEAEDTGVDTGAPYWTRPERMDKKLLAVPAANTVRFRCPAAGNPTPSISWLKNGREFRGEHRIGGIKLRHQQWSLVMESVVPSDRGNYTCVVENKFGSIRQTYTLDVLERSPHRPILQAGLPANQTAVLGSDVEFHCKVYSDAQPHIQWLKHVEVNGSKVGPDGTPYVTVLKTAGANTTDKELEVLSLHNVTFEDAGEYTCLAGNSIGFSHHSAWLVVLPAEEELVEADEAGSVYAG
In short: as §1

[4] = target: T2, FGF-R1C ECD; test: biochemical
Method: (§2) KD affinity binding measurements were obtained by biolayer interferometry (BLI) instruments (Fortebio Octet HTX, or Sartorius Octet RH16 using either 8 or 16 channel mode.
(§3) For single concentration binding experiments, 50 μM peptide stocks in folding buffer were diluted 1:50 in mRNA display selection buffer (PBS pH7.4 supplemented with 0.05% Tween-20 and 0.01% BSA) in either a 96 well black plate, or a 384 well tilted bottom microplate (ForteBio). Biotinylated FGF-R protein was loaded onto Streptavidin-functionalised biosensors (ForteBio) and immersed into ~1 μM peptide to obtain association kinetics curves. Dissociation kinetics curves were obtained by subsequent immersion of ligand-associated loaded sensors into a 1:50 dilution of folding buffer in mRNA display selection buffer. Fitted KD data was adjusted for concentration as determined by UPLC-CAD.
(§4) For accurate multi-concentration KD determination, dilution series of each peptide were made, and association and dissociation kinetics curves were obtained as above for each concentration to fit a multi-point KD binding model. Data collection and analysis was performed using the Octet Instrument Control […]
(§5) concentration assay kinetics curves shown in supplementary Figure S 19-24.

[5] = target: T3, FGF-R3C ECD; test: biochemical
Method: as §2, §3, §4, §5

[6] = target: T1, FGF-R4 ECD; test: multi-concentration BLI of purified peptides; format: binding; conditions: purified trimer-18 library peptides
Method: as §2, §3, §4, §5

[7] = crude NNK peptides, single concentration BLI (Table S3), read-out: KD (4)

| Molecule | pKd [1, 7] | pKd [2] | pKd [3] | pKd [4] | pKd [5] | pKd [6] | pKd [1] |
| --- | --- | --- | --- | --- | --- | --- | --- |
| CC[C@H](C)[C@@H]1NC(=O)[C@H](Cc2ccccc2)NC(=O)[C@@H]2CCCN2C(=O)[C@H](CC(C)C)NC(=O)[C@H](Cc2ccccc2)NC(=O)[C@H](CC(C)C)NC(=O)[C@H](CC(=O)O)NC(=O)[C@H](Cc2ccccc2)NC(=O)[C@H]([C@@H](C)O)NC(=O)[C@@H](NC(=O)[C@@H](N)CCSC)CSSC[C@@H](C(=O)NCC(=O)N[C@@H](CO)C(=O)NCC(=O)N[C@@H](CO)C(=O)N[C@@H](CC(=O)O)C(=O)N[C@@H](Cc2ccc(O)cc2)C(=O)N[C@@H](CCCCN)C(=O)N[C@@H](CC(=O)O)C(=O)N[C@@H](CC(=O)O)C(=O)N[C@@H](CC(=O)O)C(=O)N[C@@H](CC(=O)O)C(=O)N[C@@H](CCCCN)C(N)=O)NC(=O)[C@H](Cc2ccccc2)NC1=O (H-MCTFDLFLPFIFCGSGSDYKDDDDK-NH2; disulfide 2-13) | < 5.00 | < 5.00 | 6.75 |  |  |  |  |
| CC[C@H](C)[C@@H]1NC(=O)[C@H](Cc2ccccc2)NC(=O)[C@@H]2CCCN2C(=O)[C@H](Cc2ccccc2)NC(=O)[C@H](Cc2c[nH]cn2)NC(=O)[C@H]([C@@H](C)O)NC(=O)[C@H](CC(=O)O)NC(=O)[C@H](Cc2ccccc2)NC(=O)[C@H]([C@@H](C)O)NC(=O)[C@@H](NC(=O)[C@@H](N)CCSC)CSSC[C@@H](C(=O)NCC(=O)N[C@@H](CO)C(=O)NCC(=O)N[C@@H](CO)C(=O)N[C@@H](CC(=O)O)C(=O)N[C@@H](Cc2ccc(O)cc2)C(=O)N[C@@H](CCCCN)C(=O)N[C@@H](CC(=O)O)C(=O)N[C@@H](CC(=O)O)C(=O)N[C@@H](CC(=O)O)C(=O)N[C@@H](CC(=O)O)C(=O)N[C@@H](CCCCN)C(N)=O)NC(=O)[C@H]([C@@H](C)O)NC1=O (H-MCTFDTHFPFITCGSGSDYKDDDDK-NH2; disulfide 2-13) | < 5.00 | < 5.00 | 6.54 |  |  |  |  |
| CC[C@H](C)[C@@H]1NC(=O)[C@@H]2CCCN2C(=O)[C@H](CC(C)C)NC(=O)[C@@H]2CCCN2C(=O)[C@H](Cc2c[nH]c3ccccc23)NC(=O)[C@@H]2CCCN2C(=O)[C@H](Cc2ccccc2)NC(=O)[C@H](CCCCN)NC(=O)[C@H]([C@@H](C)O)NC(=O)[C@@H](NC(=O)[C@@H](N)CCSC)CSSC[C@@H](C(=O)NCC(=O)N[C@@H](CO)C(=O)NCC(=O)N[C@@H](CO)C(=O)N[C@@H](CC(=O)O)C(=O)N[C@@H](Cc2ccc(O)cc2)C(=O)N[C@@H](CCCCN)C(=O)N[C@@H](CC(=O)O)C(=O)N[C@@H](CC(=O)O)C(=O)N[C@@H](CC(=O)O)C(=O)N[C@@H](CC(=O)O)C(=O)N[C@@H](CCCCN)C(N)=O)NC(=O)[C@H](C)NC(=O)[C@H](Cc2c[nH]c3ccccc23)NC(=O)[C@H](Cc2ccccc2)NC1=O (H-MCTKFPWPLPIFWACGSGSDYKDDDDK-NH2; disulfide 2-15) | 6.46 | 6.26 | < 5.00 |  |  |  |  |
| CSCC[C@H](N)C(=O)N[C@H]1CSSC[C@@H](C(=O)NCC(=O)N[C@@H](CO)C(=O)NCC(=O)N[C@@H](CO)C(=O)N[C@@H](CC(=O)O)C(=O)N[C@@H](Cc2ccc(O)cc2)C(=O)N[C@@H](CCCCN)C(=O)N[C@@H](CC(=O)O)C(=O)N[C@@H](CC(=O)O)C(=O)N[C@@H](CC(=O)O)C(=O)N[C@@H](CC(=O)O)C(=O)N[C@@H](CCCCN)C(N)=O)NC(=O)[C@H](CC(C)C)NC(=O)[C@H](C(C)C)NC(=O)[C@H](Cc2ccccc2)NC(=O)[C@@H]2CCCN2C(=O)[C@H](CC(C)C)NC(=O)[C@H](Cc2ccccc2)NC(=O)[C@H](CO)NC(=O)[C@H](CC(=O)O)NC(=O)[C@H](Cc2ccccc2)NC(=O)[C@H](C(C)C)NC1=O (H-MCVFDSFLPFVLCGSGSDYKDDDDK-NH2; disulfide 2-13) | < 5.00 | < 5.00 | 7.22 |  |  |  |  |
| CSCC[C@H](N)C(=O)N[C@H]1CSSC[C@@H](C(=O)NCC(=O)N[C@@H](CO)C(=O)NCC(=O)N[C@@H](CO)C(=O)N[C@@H](CC(=O)O)C(=O)N[C@@H](Cc2ccc(O)cc2)C(=O)N[C@@H](CCCCN)C(=O)N[C@@H](CC(=O)O)C(=O)N[C@@H](CC(=O)O)C(=O)N[C@@H](CC(=O)O)C(=O)N[C@@H](CC(=O)O)C(=O)N[C@@H](CCCCN)C(N)=O)NC(=O)[C@H](Cc2ccccc2)NC(=O)[C@H](C(C)C)NC(=O)[C@H](Cc2ccccc2)NC(=O)[C@@H]2CCCN2C(=O)[C@H](CC(C)C)NC(=O)[C@H](Cc2c[nH]c3ccccc23)NC(=O)[C@H](CO)NC(=O)[C@H](CC(=O)O)NC(=O)[C@H](Cc2ccccc2)NC(=O)[C@H](C(C)C)NC1=O (H-MCVFDSWLPFVFCGSGSDYKDDDDK-NH2; disulfide 2-13) | < 5.00 | < 5.00 | 5.97 |  |  |  |  |
| CSCC[C@H](N)C(=O)N[C@H]1CSSC[C@@H](C(=O)NCC(=O)N[C@@H](CO)C(=O)NCC(=O)N[C@@H](CO)C(=O)N[C@@H](CC(=O)O)C(=O)N[C@@H](Cc2ccc(O)cc2)C(=O)N[C@@H](CCCCN)C(=O)N[C@@H](CC(=O)O)C(=O)N[C@@H](CC(=O)O)C(=O)N[C@@H](CC(=O)O)C(=O)N[C@@H](CC(=O)O)C(=O)N[C@@H](CCCCN)C(N)=O)NC(=O)[C@H](Cc2ccc(O)cc2)NC(=O)[C@H](C(C)C)NC(=O)[C@H](Cc2ccccc2)NC(=O)[C@@H]2CCCN2C(=O)[C@H](CC(C)C)NC(=O)[C@H](Cc2c[nH]c3ccccc23)NC(=O)[C@H](CO)NC(=O)[C@H](CC(=O)O)NC(=O)[C@H](Cc2ccccc2)NC(=O)[C@H](C(C)C)NC1=O (H-MCVFDSWLPFVYCGSGSDYKDDDDK-NH2; disulfide 2-13) | < 5.00 | < 5.00 | 6.21 |  |  |  |  |
| CSCC[C@H](NC(C)=O)C(=O)N[C@H]1CSSC[C@@H](C(=O)NCC(=O)N[C@@H](CO)C(=O)NCC(=O)N[C@@H](CO)C(=O)N[C@@H](CC(=O)O)C(=O)N[C@@H](Cc2ccc(O)cc2)C(=O)N[C@@H](CCCCN)C(=O)N[C@@H](CC(=O)O)C(=O)N[C@@H](CC(=O)O)C(=O)N[C@@H](CC(=O)O)C(=O)N[C@@H](CC(=O)O)C(=O)N[C@@H](CCCCN)C(N)=O)NC(=O)[C@H](C)NC(=O)[C@H](CCCCN)NC(=O)[C@H](CCCNC(=N)N)NC(=O)[C@H](Cc2c[nH]c3ccccc23)NC(=O)[C@H](CC(C)C)NC(=O)[C@H](CC(C)C)NC(=O)[C@H](Cc2ccc(O)cc2)NC(=O)[C@H](Cc2ccc(O)cc2)NC(=O)[C@H](Cc2ccccc2)NC(=O)[C@H](CC(C)C)NC(=O)[C@H](CC(=O)O)NC(=O)[C@H](CC(N)=O)NC1=O [4.18] |  |  |  | < 6.00 | < 6.00 | 6.22 |  |
| GSGSDYKDDDDK-NH2 [flag, reference compound] |  | < 5.00 | < 5.00 |  |  |  | < 5.00 |
